According to ChEMBL document CHEMBL4808217, “Design, Synthesis, and Characterization of 4-Aminoquinazolines as Potent Inhibitors of the G Protein-Coupled Receptor Kinase 6 (GRK6) for the Treatment of Multiple Myeloma” (J Med Chem, 2021):

Legend:
[1] = target: Death-associated protein kinase 3 (Homo sapiens, UniProt O43293); test: Inhibition of recombinant human ZIPK (1 to 290 residues) using KKLNRTLSFAEPG substrate incubated for 40 mins in presence of [gamma33P]ATP by scintillation counting based radiometry assay
[2] = target: G protein-coupled receptor kinase 6 (Homo sapiens, UniProt P43250); test: Inhibition of recombinant full-length human GRK6 using casein as substrate measured after 80 mins in presence of [gamma33P]ATP by radiometric scintillation counting method
[3] = target: T1, G protein-coupled receptor kinase 3 (Homo sapiens, UniProt P35626); test: Inhibition of human GRK3 using casein as substrate in presence of [gamma33P]ATP by radiometric hotspot kinase assay
T1 sequence (P35626 whole entry): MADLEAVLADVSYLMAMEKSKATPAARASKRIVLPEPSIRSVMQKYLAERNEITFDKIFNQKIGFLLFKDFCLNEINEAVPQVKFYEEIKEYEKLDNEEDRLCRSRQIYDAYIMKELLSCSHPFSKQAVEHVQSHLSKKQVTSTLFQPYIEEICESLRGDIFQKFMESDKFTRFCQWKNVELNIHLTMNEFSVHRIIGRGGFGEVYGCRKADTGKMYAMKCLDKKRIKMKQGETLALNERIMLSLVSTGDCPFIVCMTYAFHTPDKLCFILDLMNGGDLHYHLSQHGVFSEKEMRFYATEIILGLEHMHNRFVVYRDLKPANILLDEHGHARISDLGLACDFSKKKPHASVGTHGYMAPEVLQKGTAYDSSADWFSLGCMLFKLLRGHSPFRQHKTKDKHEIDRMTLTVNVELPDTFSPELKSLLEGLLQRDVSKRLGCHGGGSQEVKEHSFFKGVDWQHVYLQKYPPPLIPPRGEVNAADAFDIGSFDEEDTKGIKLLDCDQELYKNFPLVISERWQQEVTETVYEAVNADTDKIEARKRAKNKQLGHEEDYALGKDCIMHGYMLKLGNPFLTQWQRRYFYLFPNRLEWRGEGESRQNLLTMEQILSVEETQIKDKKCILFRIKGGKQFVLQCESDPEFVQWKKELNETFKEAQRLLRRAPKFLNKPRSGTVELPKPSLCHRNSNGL

Sequence of Death-associated protein kinase 3 (O43293 whole entry, the tested form may be a part): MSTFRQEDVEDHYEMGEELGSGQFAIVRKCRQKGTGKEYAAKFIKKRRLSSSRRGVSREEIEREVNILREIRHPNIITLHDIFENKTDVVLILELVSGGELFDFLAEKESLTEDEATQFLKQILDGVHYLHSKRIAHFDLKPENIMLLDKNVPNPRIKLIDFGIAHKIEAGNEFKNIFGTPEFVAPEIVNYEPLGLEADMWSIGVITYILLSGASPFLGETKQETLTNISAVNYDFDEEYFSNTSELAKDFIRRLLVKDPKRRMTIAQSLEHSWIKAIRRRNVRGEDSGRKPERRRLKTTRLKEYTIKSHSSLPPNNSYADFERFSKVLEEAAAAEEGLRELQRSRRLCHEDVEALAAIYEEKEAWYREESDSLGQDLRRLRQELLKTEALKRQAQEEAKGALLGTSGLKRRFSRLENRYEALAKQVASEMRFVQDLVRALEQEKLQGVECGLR
Sequence of G protein-coupled receptor kinase 6 (P43250 whole entry): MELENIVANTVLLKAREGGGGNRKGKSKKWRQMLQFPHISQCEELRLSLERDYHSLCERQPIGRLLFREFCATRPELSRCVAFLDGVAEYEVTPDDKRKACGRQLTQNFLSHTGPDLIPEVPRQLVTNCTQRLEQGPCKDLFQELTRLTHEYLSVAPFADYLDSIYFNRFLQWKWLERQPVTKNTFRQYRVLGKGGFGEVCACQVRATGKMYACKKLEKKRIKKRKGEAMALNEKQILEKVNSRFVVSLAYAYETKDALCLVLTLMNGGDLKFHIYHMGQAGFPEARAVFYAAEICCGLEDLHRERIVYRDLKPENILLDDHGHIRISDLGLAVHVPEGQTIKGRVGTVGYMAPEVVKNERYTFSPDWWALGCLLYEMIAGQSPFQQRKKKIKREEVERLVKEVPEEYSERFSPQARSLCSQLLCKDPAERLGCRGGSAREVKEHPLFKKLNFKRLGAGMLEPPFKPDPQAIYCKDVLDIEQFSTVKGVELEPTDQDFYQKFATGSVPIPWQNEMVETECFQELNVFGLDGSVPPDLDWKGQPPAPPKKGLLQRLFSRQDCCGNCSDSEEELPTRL

CCc1cc(Nc2nc(NCc3ccc(Cl)cc3OC)nc3cccc(OC)c23)n[nH]1
IC50 [1]: 720 nM | IC50 [2]: 8 nM | IC50 [3]: > 10000 nM
